Values joined by “and” are separate entries in the source; they are usually repeats but may differ in a detail not shown here. Equal values may be shown once.
Key:
NBS1 = assay: Quantitative RT-PCR, unsorted mononuclear cells, NBS1; assay type: cell-based, human
Protocol: (§1) To evaluate the effect of MGBG on gene expression, blood samples were obtained from patients (N=18, 10 HIV-infected and 8 Healthy Controls). Mononuclear cells were isolated via Percoll gradient centrifugation. The cells were split into two tubes, one treated with 10 μM of MGBG and the other non-treated. The cells were then cultured overnight in RPMI media plus 10% fetal bovine serum at 37 C under non-adherent conditions, collected, lysed using Trizol solution, and total RNA prepared according to manufacturer's instructions (Invitrogen, Carlsbad, Calif.).
(§2) Approximately 200 ng of total RNA prepared from each sample was converted to cDNA using the First Strand cDNA Synthesis Kit for RT-PCR [AMV] kit (Roche Applied Diagnostics, Indianapolis, Ind.) according to manufacturer's instructions. Around 5 ng of cDNA sample was then used for PCR performed on a LightCycler (Roche Applied Diagnostics, Indianapolis, Ind.) using the LightCycler FastStart DNA Master SYBR Green I kit. PCR conditions are as follows: 1 cycle of denaturation at 95° C. for 10 minutes, followed by 45 cycles of 95° C. for 10 seconds, 68° C. for 10 seconds, and 72° C. for 16 seconds.
(§3) The sequences of gene-specific primers evaluated are listed below. All samples were also amplified with the human β-actin LightCycler-Primer set (Roche Diagnostics).

ADA = assay: Quantitative RT-PCR, unsorted mononuclear cells, ADA; assay type: cell-based, human
Protocol: as §1, §2, §3

TNFα [1] = assay: QRT-PCR in CD14/CD16-separated cell fractions, TNFα RNA; assay type: cell-based, human; conditions: monocytes, 10 μM MGBG, p=0.03
Protocol: (§4) The changes induced by MGBG in different blood cell types were determined for osteopontin and adenosine deaminase and 7 other genes. For this experiment, blood samples were obtained from 6 healthy controls (3 men/3 women from 20 to 55 years of age) and mononuclear cells were isolated via Percoll gradient centrifugation. The cells were then incubated for 3 hours in RPMI media plus 10% fetal bovine serum at 37 C. At that point MGBG was added to 10 μM to half of each sample and then the cells were incubated at 37 C for 20 more hours. The cells were then bound to magnetic beads coated with antibodies to human CD16. Bound cells (CD16 expressing) were separated from unbound cells using an AutoMACs according to manufacturer's instructions (Miltenyi, Auburn Calif.). Then CD16+ cells are released from the magnetic beads and both the CD16+ and CD16− cells are combined with magnetic beads coated with antibodies to human CD14. Antibody bound and unbound cells were then separated using the AutoMACs machine. […] Cells that neither express CD16 nor CD14 (the −/− Cells). This is mostly T lymphocytes; 2. Cells that only express CD16. This includes contaminating granulocytes not removed by Percoll centrifugation and CD16+ monocytes with very low CD14 expression; 3. […] After separation, cells of each fraction are washed with PBS and the number of viable cells determined by trypan blue exclusion. […]

OPN protein = assay: OPN production inhibition assay in un-stimulated PBMC cultures, OPN protein; assay type: cell-based; conditions: 10 μM
Protocol: (§5) 10 μM of each drug was added to un-stimulated PBMC cultures at time=0 and cells were harvested 1,3, and 6 days later for quantitative OPN RNA and protein production analysis.

CD14 = assay: QRT-PCR in CD14/CD16-separated cell fractions, CD14 RNA; assay type: cell-based, human; conditions: CD14/CD16++ macrophages, 10 μM MGBG, p=0.02
Protocol: as §4

FCGR1a = assay: Microarray analysis of mononuclear cells, FCGR1a; assay type: cell-based, human; conditions: for FCGR1a signal +, Average: 10 μM MGBG
Protocol: (§6) Blood samples were obtained from HIV infected patients (N=9) with positive viral load and reduced CD4 counts, and non-HIV infected, healthy controls (N=6). Blood was collected into heparin anticoagulant tubes and mononuclear cells were isolated by Percoll gradient centrifugation. The cells from each sample were split into 2: one-half receives MGBG at concentration of 10 μM and the other half received no treatment. All samples were then cultured overnight in RPMI media with 10% fetal bovine serum at 37° C. under non-adherent conditions. The next day cells were collected by centrifugation, washed one time with PBS, and lysed by resuspension in TRIZOL, and total RNA was prepared according to manufacturer's instructions (Invitrogen, Carlsbad, Calif.). […] The RNA was then amplified for microarray analysis using a 2 cycle amplification protocol according to the manufacturer's instructions (Affymetrix, Santa Clara, Calif.). The amplified RNAs were then hybridized to Human Genome U133 plus 2.0 microarrays (Affymetrix) and expression data was obtained using an Affymetrix scanner and GCOS protocols. Microarray data was analyzed with GeneSpring Microarray Suite. Results were normalized using a set of 100 probe sets determined by the manufacturer to have relatively invariant expression across most cell types.

mononuclear cells = assay: Microarray analysis, number of probes changed; assay type: cell-based, human; conditions: average signals, MGBG vs untreated samples
Protocol: as §6

OPN = OPN antibody staining of brains and lymph nodes of SIV-infected animals; assay type: in vivo, Rhesus macaques
Protocol: These monkeys were then treated with MGBG as described.

TNFα [2] = assay: Microarray analysis of mononuclear cells, TNFα probe; assay type: cell-based, human
Protocol: as §6

OPN RNA = assay: OPN production inhibition assay in un-stimulated PBMC cultures, OPN RNA; assay type: cell-based; conditions: 10 μM, harvested 1, 3 and 6 days
Protocol: as §5

[3] = 10 μM MGBG, all unsorted samples

CC(/C=N/NC(=N)N)=N\NC(=N)N [MGBG, 1,1′ [methylethanediylidene]dinitrilodiguanidine]
Fold change NBS1 by QRT-PCR (NBS1; 10 μM MGBG overnight, individual samples): 1.68 fold and 1.25 fold and 1.35 fold and −1.56 fold and 2.07 fold and 3.51 fold (2×) and −1.09 fold and 1.04 fold and 4.08 fold and 2.31 fold and 1.14 fold and 1.27 fold and −4.35 fold and −8.51 fold and −2.51 fold and −1.89 fold and 3.63 fold
NBS1 AVERAGE (NBS1; 10 μM MGBG, all samples): 1.65 fold
NBS1 MAX (NBS1; 10 μM MGBG, all samples): 4.08 fold
NBS1 MIN (NBS1; 10 μM MGBG, all samples): −8.51 fold
Fold change ADA by QRT-PCR (ADA; 10 μM MGBG overnight, untreated vs treated, negative = fold reduction, individual samples): 16.80 fold and 4.69 fold and 18.77 fold and 2.33 fold and 13.00 fold and 3.34 fold and 5.90 fold and 10.06 fold and 7.52 fold and 4.23 fold and 7.21 fold and 1.38 fold and −0.73 fold and 6.68 fold and 3.01 fold and 3.76 fold and 1.16 fold and 7.16 fold
Fold change ADA, AVERAGE (ADA; [3]): 6.5 fold
Fold change ADA, MAX (ADA; [3]): 18.8 fold
Fold change ADA, MIN (ADA; [3]): −0.7 fold
ADA % >2 fold Changed (ADA; share of samples, 10 μM MGBG): 83%
ADA regulation by MGBG (ADA; upregulated in all but one sample): strongly induced
TNFα RNA median signal relative to no MGBG (TNFα [1]): 0.32
OPN protein production (OPN protein): Complete inhibition
CD14 RNA median signal relative to no MGBG (CD14): 0.55
FCGR1a signal +, Average (FCGR1a; average of HIV samples): 439
FCGR1a signal +, Average (FCGR1a; average of control samples (C6-, M6-177)): 608
FCGR1A fold change, ON/MGBG ratio (down-regulation) (FCGR1a; 10 μM, individual donor samples): 9.2 fold and 1.3 fold and 0.3 fold (3×) and 0.9 fold (2×) and 0.1 fold and 4.3 fold and 2.7 fold and 2.5 fold and 2.2 fold and 0.4 fold and 12.3 fold and 1.0 fold
samples with FCGR1A down-regulated more than 2 fold (FCGR1a; HIV samples): 6 of 9
FCGR1a signal + (FCGR1a; presence of 10 μM MGBG overnight, individual donor samples): 415 and 461 and 59 and 800 and 1561 and 136 and 51 and 612 and 53 and 1362 and 1435 and 264 and 33 and 14 and 347
probes down-regulated at least 1.5 fold (mononuclear cells): 489 probes
probes up-regulated at least 1.5 fold (mononuclear cells): 382 probes
OPN in brains, antibody staining (OPN; FIG. 10, treated SIV-infected animals): complete removal of OPN
OPN staining in lymph nodes (OPN; FIG. 11, treated animals B146 and CB18): markedly decreased levels of OPN
samples less than 2 fold changed, TNFα probe (TNFα [2]; HIV infected individuals): 6 out of 9
samples less than 2 fold changed, TNFα probe (TNFα [2]; controls): 2 out of 6
average change for the TNFα Probe set, up-regulated (TNFα [2]; presence of MGBG, all samples): 8.7 fold
OPN RNA expression (OPN RNA): inhibited in a time dependant manner

— patent publication US9867794B2, “Regulation of osteopontin” (Pathologica LLC, priority 2007, dated 2018)
